Results on 16 compounds are retold here after ChEMBL document CHEMBL4229471, “Antiprotozoal and cysteine proteases inhibitory activity of dipeptidyl enoates” (Bioorg Med Chem, 2018).

For data set [1], the target named is T1, Cathepsin B (Homo sapiens, UniProt P07858). Nature of the data set: Inhibition of human cathepsin B at 20 uM using Cbz-Phe-Arg-AMC as substrate relative to control.
Data set [2] has as its target T2, Procathepsin L (Homo sapiens, UniProt P07711). The experiment in a line: Inhibition of human cathepsin L at 20 uM using Cbz-Phe-Arg-AMC as substrate relative to control.
Target sequence in this assay (P07711 114-333 limits assumed): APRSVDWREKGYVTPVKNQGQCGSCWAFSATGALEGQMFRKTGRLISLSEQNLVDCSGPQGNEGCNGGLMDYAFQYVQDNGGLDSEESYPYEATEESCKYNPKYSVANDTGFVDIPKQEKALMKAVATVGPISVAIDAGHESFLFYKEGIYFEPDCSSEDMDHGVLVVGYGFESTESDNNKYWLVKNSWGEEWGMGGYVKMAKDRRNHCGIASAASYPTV
Data set [3] addresses Rhodesain (Trypanosoma brucei rhodesiense) (UniProt Q95PM0). The experiment in a line: Inhibition of Trypanosoma brucei rhodesiense rhodesain at 20 uM using Cbz-Phe-Arg-AMC as substrate measured for 30 mins by fluorescence method relative to control.
In data set [4] the target is T3, Falcipain 2 (Plasmodium falciparum) (UniProt Q9N6S8).
T3 sequence (whole entry): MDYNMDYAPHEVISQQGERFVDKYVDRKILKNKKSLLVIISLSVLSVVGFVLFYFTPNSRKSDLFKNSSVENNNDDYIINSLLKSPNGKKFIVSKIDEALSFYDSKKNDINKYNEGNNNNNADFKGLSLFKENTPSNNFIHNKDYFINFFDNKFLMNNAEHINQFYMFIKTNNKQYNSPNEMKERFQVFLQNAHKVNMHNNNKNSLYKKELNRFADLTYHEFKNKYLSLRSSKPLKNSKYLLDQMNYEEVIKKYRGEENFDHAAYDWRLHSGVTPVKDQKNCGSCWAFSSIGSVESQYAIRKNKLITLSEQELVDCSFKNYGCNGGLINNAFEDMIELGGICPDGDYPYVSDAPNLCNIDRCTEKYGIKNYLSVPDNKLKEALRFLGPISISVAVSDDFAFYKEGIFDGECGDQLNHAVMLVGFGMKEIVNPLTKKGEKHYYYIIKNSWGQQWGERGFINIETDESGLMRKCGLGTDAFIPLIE
The experiment in a line: Inhibition of Plasmodium falciparum falcipain-2 at 20 uM using Cbz-Phe-Arg-AMC as substrate measured for 15 mins by spectrofluorimetric method relative to control.

Data set [5] in a line: Cytotoxicity against human HepG2 cells assessed as cell viability at 1 uM measured after 24 hrs by spectrophotometric method relative to control. It counts as cell-based. The conditions noted are these: read-out: Activity.
Data set [6] has as its target Cruzipain (Trypanosoma cruzi) (UniProt P25779). The experiment in a line: Inhibition of Trypanosoma cruzi cruzain assessed as second-order rate constant.
Data set [7] deals with T2, Procathepsin L. The experiment in a line: Inhibition of human cathepsin L assessed as second order rate constant using Cbz-Phe-Arg-AMC as substrate.
Target sequence in this assay (P07711 114-333 limits assumed): as the sequence (P07711 114-333 limits assumed) above
Data set [8] concerns the target Cruzipain (Trypanosoma cruzi, UniProt P25779). The experiment in a line: Inhibition of Trypanosoma cruzi cruzain.
In data set [9] the target is T1, Cathepsin B. Nature of the data set: Inhibition of human cathepsin B assessed as second order rate constant using Cbz-Phe-Arg-AMC as substrate.
For data set [10], the target named is Rhodesain (Trypanosoma brucei rhodesiense) (UniProt Q95PM0). Nature of the data set: Inhibition of Trypanosoma brucei rhodesiense rhodesain assessed as second-order rate constant using Cbz-Phe-Arg-AMC as substrate measured for 30 mins by fluorescence method.
In data set [11] the target is Rhodesain (Trypanosoma brucei rhodesiense, UniProt Q95PM0). The experiment in a line: Inhibition of Trypanosoma brucei rhodesiense rhodesain using Cbz-Phe-Arg-AMC as substrate measured for 30 mins by fluorescence method.
For data set [12], the target named is T1, Cathepsin B. The experiment in a line: Inhibition of human cathepsin B using Cbz-Phe-Arg-AMC as substrate.
Data set [13] has as its system Plasmodium falciparum. The experiment in a line: Antimalarial activity against erythrocytic stage of synchronized Plasmodium falciparum Dd2 after 48 hrs by Picogreen dye based fluorescence assay. It counts as functional, organism-based. The conditions noted are these: Dd2, 48 h.
The target of data set [14] is T2, Procathepsin L. Nature of the data set: Inhibition of human cathepsin L using Cbz-Phe-Arg-AMC as substrate.
Target sequence in this assay (P07711 whole entry): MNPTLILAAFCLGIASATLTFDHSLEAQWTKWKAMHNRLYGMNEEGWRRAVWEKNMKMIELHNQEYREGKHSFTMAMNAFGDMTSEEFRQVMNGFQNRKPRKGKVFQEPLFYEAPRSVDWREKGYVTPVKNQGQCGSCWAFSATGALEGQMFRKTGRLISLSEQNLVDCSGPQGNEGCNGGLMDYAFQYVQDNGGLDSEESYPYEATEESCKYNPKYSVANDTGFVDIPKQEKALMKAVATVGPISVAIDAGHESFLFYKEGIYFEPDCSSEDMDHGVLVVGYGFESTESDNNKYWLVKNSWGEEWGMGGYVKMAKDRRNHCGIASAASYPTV
The target of data set [15] is Cruzipain (Trypanosoma cruzi) (UniProt P25779). The experiment in a line: Inhibition of Trypanosoma cruzi cruzain at 20 uM relative to control.
Data set [16] addresses T4, Falcipain 2 (Plasmodium falciparum, UniProt Q9N6S8).
T4 sequence (Q9N6S8 whole entry): T3 sequence (whole entry)
Nature of the data set: Inhibition of Plasmodium falciparum falcipain-2 using Cbz-Phe-Arg-AMC as substrate measured for 15 mins by spectrofluorimetric method.

The target in data set [17] is T3, Falcipain 2 (Plasmodium falciparum). Nature of the data set: Inhibition of Plasmodium falciparum falcipain-2 assessed as second-order rate constant using Cbz-Phe-Arg-AMC as substrate measured for 15 mins by spectrofluorimetric method.

Sequence of Rhodesain (Trypanosoma brucei rhodesiense) (Q95PM0 1-450): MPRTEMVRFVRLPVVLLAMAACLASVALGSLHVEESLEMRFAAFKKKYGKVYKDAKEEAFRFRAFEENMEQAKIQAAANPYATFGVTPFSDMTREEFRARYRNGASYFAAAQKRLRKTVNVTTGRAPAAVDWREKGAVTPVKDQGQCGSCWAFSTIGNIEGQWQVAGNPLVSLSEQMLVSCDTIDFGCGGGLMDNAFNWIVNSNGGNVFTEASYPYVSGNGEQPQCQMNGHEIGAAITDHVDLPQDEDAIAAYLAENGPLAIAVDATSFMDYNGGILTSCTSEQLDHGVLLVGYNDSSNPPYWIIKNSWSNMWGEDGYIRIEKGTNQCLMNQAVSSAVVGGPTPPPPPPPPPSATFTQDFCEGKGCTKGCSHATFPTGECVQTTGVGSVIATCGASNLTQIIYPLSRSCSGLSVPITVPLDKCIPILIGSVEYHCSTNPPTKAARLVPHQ
Sequence of Rhodesain (Q95PM0 whole entry): as the sequence (Q95PM0 1-450) above
Sequence of Cruzipain (P25779 whole entry): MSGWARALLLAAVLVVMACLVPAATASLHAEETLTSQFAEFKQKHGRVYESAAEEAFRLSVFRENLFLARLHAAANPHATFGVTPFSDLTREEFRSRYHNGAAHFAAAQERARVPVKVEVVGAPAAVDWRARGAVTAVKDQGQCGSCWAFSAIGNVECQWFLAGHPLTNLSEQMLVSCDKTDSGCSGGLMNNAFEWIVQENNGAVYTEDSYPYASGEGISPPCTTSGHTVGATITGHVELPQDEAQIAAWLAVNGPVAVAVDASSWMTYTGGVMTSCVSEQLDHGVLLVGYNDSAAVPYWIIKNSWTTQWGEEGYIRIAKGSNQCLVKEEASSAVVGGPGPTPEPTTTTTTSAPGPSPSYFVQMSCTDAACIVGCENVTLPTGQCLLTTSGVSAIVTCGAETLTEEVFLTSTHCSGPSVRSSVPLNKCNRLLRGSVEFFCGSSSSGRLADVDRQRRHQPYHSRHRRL
Sequence of Cruzipain (Trypanosoma cruzi) (P25779 123-467 limits assumed): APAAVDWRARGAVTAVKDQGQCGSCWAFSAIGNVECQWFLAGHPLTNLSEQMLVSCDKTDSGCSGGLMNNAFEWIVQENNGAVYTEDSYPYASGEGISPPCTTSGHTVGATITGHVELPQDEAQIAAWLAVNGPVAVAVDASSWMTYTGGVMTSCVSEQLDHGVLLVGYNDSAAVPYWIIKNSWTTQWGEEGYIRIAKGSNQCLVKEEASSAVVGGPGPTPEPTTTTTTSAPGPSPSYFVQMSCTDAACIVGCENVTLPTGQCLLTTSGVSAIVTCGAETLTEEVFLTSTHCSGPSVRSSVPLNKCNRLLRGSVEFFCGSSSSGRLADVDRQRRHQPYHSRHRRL

With `CCOC(=O)/C=C/[C@H](O)[C@H](CCc1ccccc1)C(=O)N[C@@H](Cc1ccccc1)C(=O)OCc1ccccc1`, the inhibition in data set [1] turned out to be 25%; in [2], 0%; in data set [3] it was 6%; in [4] it was 5%.

As to `CCOC(=O)/C=C/C(=O)[C@H](CCc1ccccc1)NC(=O)[C@H](CC(C)C)NC(=O)N1CCOCC1`, the viability at 24 h, 1 µM in data set [5] stood at 100%. Besides, the inhibition in [1], in data set [2] and in data set [3] was 100% each time. Further, the K in [6] is 5600 M⁻¹ s⁻¹; in [7], 19600 M⁻¹ s⁻¹; in data set [9], 31400 M⁻¹ s⁻¹; in data set [10] it was 120000 M⁻¹ s⁻¹. For the same compound, the IC50 is 340 nM in data set [8]; 140 nM in data set [11]; 140 nM in data set [12]; 17700 nM in data set [13]; 210 nM in [14].

As for `CCOC(=O)/C=C/[C@@H](O)[C@H](CCc1ccccc1)NC(=O)[C@H](CC(C)C)NC(=O)OCc1ccccc1`, the inhibition is 9% in data set [15]; 10% in data set [1]; 14% in data set [2]; 0% in [3]; 11% in [4].

With `CCOC(=O)/C=C/[C@H](O)[C@H](CCc1ccccc1)C(=O)N[C@@H](CC(C)C)C(=O)OC`, the inhibition in data set [1] is 0%; in data set [2] it was 0%; in [3] it was 1%; in data set [4], 3%.

For `CCOC(=O)/C=C/[C@H](O)[C@H](CCc1ccccc1)C(=O)N[C@@H](CC(C)C)C(=O)OCc1ccccc1`, the inhibition in data set [1] stood at 17%; in [2], 0%; in [3], 2%; in data set [4], 5%.

Turning to `CCOC(=O)/C=C/C(=O)[C@H](CC(C)C)NC(=O)[C@H](CC(C)C)NC(=O)N1CCOCC1`, the inhibition in data set [15], in data set [1], in data set [2] and in data set [3] was 100% throughout. In addition, the K in data set [6] was 10600 M⁻¹ s⁻¹; in [7] it was 52200 M⁻¹ s⁻¹; in data set [9] it was 49500 M⁻¹ s⁻¹; in data set [10] it was 324000 M⁻¹ s⁻¹. In addition, the IC50 amounted to 200 nM in data set [8], 110 nM in data set [11], 90 nM in [12] and 90 nM in data set [14].

Consider `CCOC(=O)/C=C/C(=O)[C@@H](CC(C)C)NC(=O)[C@H](Cc1ccccc1)NC(=O)OCc1ccccc1`, for which the inhibition in data set [15], in data set [1], in data set [2] and in data set [3] was 100% in each case. Moreover, the K worked out at 312000 M⁻¹ s⁻¹ in [6], 704000 M⁻¹ s⁻¹ in data set [7], 117000 M⁻¹ s⁻¹ in data set [9] and 1.53e+06 M⁻¹ s⁻¹ in [10]. The IC50 in data set [8] was 20 nM; in [11], 30 nM; in data set [12] it was 60 nM; in data set [14] it was 10 nM.

Regarding `O=C(/C=C/[C@@H](O)[C@H](CCc1ccccc1)NC(=O)[C@H](Cc1ccccc1)NC(=O)OCc1ccccc1)NCc1ccccc1`, the inhibition was determined as 41% in [15], 9% in [1], 17% in data set [2] and 1% in [3].

For the compound `CCOC(=O)/C=C/[C@H](O)[C@H](CCc1ccccc1)NC(=O)[C@H](Cc1ccccc1)NC(=O)OCc1ccccc1`, the inhibition in [15] is 37%; in data set [1] it was 35%; in data set [2] it was 58%; in data set [3] it was 32%; in [4], 22%. Moreover, the K in [7] is 77 M⁻¹ s⁻¹; in data set [9] it was 14 M⁻¹ s⁻¹. For the same compound, the results for the concentration for half-maximal inhibition (IC50) in [12] and in data set [14] were 52600 nM and 47000 nM, respectively.

As for `O=C(O)/C=C/[C@@H](O)[C@H](CCc1ccccc1)NC(=O)[C@H](Cc1ccccc1)NC(=O)OCc1ccccc1`, the inhibition in data set [15] was found to be 12%; in [1], 15%; in data set [2], 47%; in data set [3], 24%; in [4], 24%. Besides, the K in data set [7] is 882 M⁻¹ s⁻¹; in data set [17], 29 M⁻¹ s⁻¹. Besides, the IC50 in data set [16] came to 75000 nM.

Take `CCOC(=O)/C=C/C(=O)[C@H](C)NC(=O)[C@H](CC(C)C)NC(=O)OCc1ccccc1`: the inhibition worked out at 99% in data set [15]; 100% in [1]; 99% in data set [2]; 99% in data set [3]; 98% in data set [4]. In addition, the K in data set [6] worked out at 14400 M⁻¹ s⁻¹; in [7], 9800 M⁻¹ s⁻¹; in data set [9] it was 85500 M⁻¹ s⁻¹; in data set [10], 14200 M⁻¹ s⁻¹; in data set [17], 12000 M⁻¹ s⁻¹. Also, the IC50 in [16] was 1200 nM; in [14], 500 nM.

In the case of `CCOC(=O)/C=C/[C@@H](O)[C@H](C)NC(=O)[C@H](Cc1ccccc1)NC(=O)OCc1ccccc1`, the inhibition in data set [15] was found to be 30%; in [1], 26%; in data set [2], 80%; in data set [3] it was 63%; in data set [4], 41%. Moreover, the K in [7] was determined as 828 M⁻¹ s⁻¹; in data set [10], 11000 M⁻¹ s⁻¹; in data set [17] it was 2700 M⁻¹ s⁻¹. Besides, the IC50 in [16] is 26800 nM; in data set [11], 15100 nM.

With `CCOC(=O)/C=C/[C@@H](O)[C@H](CCc1ccccc1)NC(=O)[C@H](Cc1ccccc1)NC(=O)N1CCOCC1`, the inhibition was found to be 95% in [15], 100% in data set [1], 98% in data set [2] and 99% in data set [3]. In addition, the K was 3600 M⁻¹ s⁻¹ in data set [6], 1900 M⁻¹ s⁻¹ in data set [7], 4190 to 4200 M⁻¹ s⁻¹ in data set [9] and 36700 M⁻¹ s⁻¹ in [10].

For `CCOC(=O)/C=C/[C@H](O)[C@H](CCc1ccccc1)C(=O)N[C@@H](Cc1ccccc1)C(=O)OC`, the inhibition in data set [1] worked out at 0%; in data set [2] it was 0%; in [3] it was 4%; in [4], 9%.

For the compound `CCOC(=O)/C=C/[C@@H](O)[C@H](CCc1ccccc1)NC(=O)[C@H](Cc1ccccc1)NC(=O)OCc1ccccc1`, the inhibition in data set [15] worked out at 18%; in data set [1], 36%; in data set [2], 57%; in data set [3], 63%; in data set [4], 41%. Also, the K in data set [7] is 1100 M⁻¹ s⁻¹; in [9] it was 772 to 800 M⁻¹ s⁻¹; in data set [10], 3200 to 3210 M⁻¹ s⁻¹; in [17], 557 M⁻¹ s⁻¹. This compound also registered an IC50 in [16] of 34400 nM.

Regarding `CCOC(=O)/C=C/C(=O)[C@H](C)NC(=O)[C@H](Cc1ccccc1)NC(=O)OCc1ccccc1`, the inhibition in data set [15] was determined as 100%; in data set [1], 100%; in data set [2], 100%; in data set [3], 100%; in data set [4], 99%. In addition, the K is 140000 M⁻¹ s⁻¹ in data set [6]; 197000 M⁻¹ s⁻¹ in data set [7]; 47000 M⁻¹ s⁻¹ in [9]; 6500 M⁻¹ s⁻¹ in data set [10]; 28300 M⁻¹ s⁻¹ in data set [17]. For the same compound, the figures for the IC50 in data set [16], in [8] and in [14] were 190 nM, 300 nM and 80 nM, respectively.
